In PubChem BioAssay AID248 (DTP/NCI, 2004):
“And” between values parts separate entries of the source, which are not always exact repeats. Equal values may be shown once. Inconclusive results and toxic doses are left out. No stated cut-off is given here; in the data, active means T/C of 150% or more; inactive means T/C below 125%.

System: L1210 leukemia ip in BDF1 mice, survival T/C
Assay: NCI In Vivo Anticancer Drug Screen. Data for tumor model L1210 Leukemia (intraperitoneal) in B6D2F1 (BDF1) mice
Settings: endpoint: mean survival time, higher = longer survival
Summary of the method: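 Read-out is survival time, reported as the treated-group measurement over the vehicle-control measurement.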

[1] = dose: 100.0 mg/kg/injection, schedule: Q04DX003 (ip), vehicle: saline with Tween-80
[2] = dose: 25.0 mg/kg/injection, schedule: Q01DX009 (ip), vehicle: saline
[3] = dose: 50.0 mg/kg/injection, schedule: Q01DX009 (ip), vehicle: saline
[4] = dose: 75.0 mg/kg/injection, schedule: Q01DX001 (ip), vehicle: saline

Measured: T/C

CCOc1ccccc1N1C(=O)C=CC1=O
inactive: dose: 12.5 mg/kg/injection, schedule: Q04DX002 (ip), vehicle: saline with Tween-80 96 % of control | dose: 25.0 mg/kg/injection, schedule: Q04DX002 (ip), vehicle: saline with Tween-80 109 % of control

CCc1c(O)c2c(c(O)c1C(C)=O)C(=O)c1c(cc(O)c(C(=O)O)c1C(=O)O)C2=O
inactive: [1] 100 % of control | dose: 200.0 mg/kg/injection, schedule: Q04DX003 (ip), vehicle: saline with Tween-80 100 % of control

CC1CN1P1(N2CC2C)=NP(N2CC2C)(N2CC2C)=NP(N2CC2C)(N2CC2C)=N1 (centres undefined)
inactive: dose: 12.5 mg/kg/injection, schedule: Q01DX001 (ip), vehicle: saline 106 % of control | dose: 12.5 mg/kg/injection, schedule: Q04DX003 (ip), vehicle: saline 116 % of control | dose: 25.0 mg/kg/injection, schedule: Q01DX001 (ip), vehicle: saline 105 % of control | [2] 118 % of control | dose: 25.0 mg/kg/injection, schedule: Q04DX003 (ip), vehicle: saline 116 % of control | dose: 50.0 mg/kg/injection, schedule: Q01DX001 (ip), vehicle: saline 120 % of control | [3] 111 % of control | dose: 50.0 mg/kg/injection, schedule: Q04DX003 (ip), vehicle: saline 112 % of control | dose: 75.0 mg/kg/injection, schedule: Q04DX003 (ip), vehicle: acetone 120 % of control | dose: 100.0 mg/kg/injection, schedule: Q01DX009 (ip), vehicle: saline 106 % of control | dose: 170.0 mg/kg/injection, schedule: Q04DX003 (ip), vehicle: acetone 105 % of control | dose: 200.0 mg/kg/injection, schedule: Q01DX001 (ip), vehicle: saline 104 % of control

c1ccc(Cn2ccnc2)cc1
inactive: dose: 3.12 mg/kg/injection, schedule: Q01DX009 (ip), vehicle: water 106 % of control | dose: 6.25 mg/kg/injection, schedule: Q01DX009 (ip), vehicle: water 117 % of control | dose: 12.5 mg/kg/injection, schedule: Q01DX009 (ip), vehicle: water 107 % of control | dose: 25.0 mg/kg/injection, schedule: Q01DX009 (ip), vehicle: water 104 % of control and 108 % of control | dose: 50.0 mg/kg/injection, schedule: Q01DX009 (ip), vehicle: water 96 % of control | [4] 103 % of control

OC1(c2ccccc2)c2cscc2C(O)(c2ccccc2)c2c(Cl)sc(Cl)c21 (centres undefined)
inactive: dose: 100.0 mg/kg/injection, schedule: Q01DX001 (ip), vehicle: saline with Tween-80 91 % of control | dose: 400.0 mg/kg/injection, schedule: Q01DX001 (ip), vehicle: saline with Tween-80 87 % of control

N#CC12OC1(C#N)C(=O)C1(Cl)C3C=CC(C3)C1(Cl)C2=O (centres undefined)
inactive: dose: 12.5 mg/kg/injection, schedule: Q01DX009 (ip), vehicle: saline 102 % of control | [2] 102 % of control | [3] 96 % of control and 106 % of control

O=C(Nc1cccc(Cl)c1)c1cc([N+](=O)[O-])ccc1O
inactive: dose: 5.0 mg/kg/injection, schedule: Q01DX001 (ip), vehicle: other 104 % of control | dose: 10.0 mg/kg/injection, schedule: Q01DX001 (ip), vehicle: other 104 % of control | dose: 10.0 mg/kg/injection, schedule: Q02DX010 (ip), vehicle: carboxymethylcellulose (CMC) 105 % of control | dose: 20.0 mg/kg/injection, schedule: Q01DX001 (ip), vehicle: other 104 % of control | dose: 20.0 mg/kg/injection, schedule: Q02DX010 (ip), vehicle: carboxymethylcellulose (CMC) 109 % of control | dose: 40.0 mg/kg/injection, schedule: Q01DX001 (ip), vehicle: other 101 % of control | dose: 40.0 mg/kg/injection, schedule: Q02DX010 (ip), vehicle: carboxymethylcellulose (CMC) 95 % of control | dose: 80.0 mg/kg/injection, schedule: Q01DX001 (ip), vehicle: other 95 % of control | dose: 80.0 mg/kg/injection, schedule: Q02DX010 (ip), vehicle: carboxymethylcellulose (CMC) 88 % of control | dose: 100.0 mg/kg/injection, schedule: Q01DX001 (ip), vehicle: other 86 % of control | dose: 200.0 mg/kg/injection, schedule: Q01DX001 (ip), vehicle: other 97 % of control | dose: 400.0 mg/kg/injection, schedule: Q01DX001 (ip), vehicle: other 114 % of control

CN(C)C1CCCC/C=C\C(=O)NC1 (centres undefined)
inactive: dose: 25.0 mg/kg/injection, schedule: Q04DX002 (ip), vehicle: saline 99 % of control | dose: 50.0 mg/kg/injection, schedule: Q04DX002 (ip), vehicle: saline 101 % of control | [4] 109 % of control | dose: 100.0 mg/kg/injection, schedule: Q04DX002 (ip), vehicle: saline 99 % of control

Cc1ccc(Cl)cc1NC(=O)Oc1ccc(Cl)cc1C
inactive: dose: 12.5 mg/kg/injection, schedule: Q01DX009 (ip), vehicle: Klucel (hydroxypropylcellulose) (HPC) 95 % of control | dose: 25.0 mg/kg/injection, schedule: Q01DX009 (ip), vehicle: Klucel (hydroxypropylcellulose) (HPC) 95 % of control | dose: 50.0 mg/kg/injection, schedule: Q01DX009 (ip), vehicle: Klucel (hydroxypropylcellulose) (HPC) 97 % of control | dose: 100.0 mg/kg/injection, schedule: Q01DX009 (ip), vehicle: Klucel (hydroxypropylcellulose) (HPC) 96 % of control

CN=C(c1ccc(NC(=O)c2cc(N)cc(C(=O)Nc3ccc(C(=NC)N(C)C)cc3)c2)cc1)N(C)C
inactive: dose: 0.9 mg/kg/injection, schedule: Q01DX Z (ip), vehicle: carboxymethylcellulose (CMC) 94 % of control | dose: 1.87 mg/kg/injection, schedule: Q01DX Z (ip), vehicle: carboxymethylcellulose (CMC) 97 % of control | dose: 3.75 mg/kg/injection, schedule: Q01DX Z (ip), vehicle: carboxymethylcellulose (CMC) 91 % of control | dose: 7.5 mg/kg/injection, schedule: Q01DX Z (ip), vehicle: carboxymethylcellulose (CMC) 100 % of control | dose: 15.0 mg/kg/injection, schedule: Q01DX Z (ip), vehicle: carboxymethylcellulose (CMC) 100 % of control | dose: 30.0 mg/kg/injection, schedule: Q01DX Z (ip), vehicle: carboxymethylcellulose (CMC) 91 % of control

S=C(N/N=C/c1ccc(Cl)cc1Cl)Nc1cccc2cccnc12
inactive: dose: 5.0 mg/kg/injection, schedule: Q01DX001 (ip), vehicle: saline 96 % of control | dose: 10.0 mg/kg/injection, schedule: Q01DX001 (ip), vehicle: saline 96 % of control | dose: 20.0 mg/kg/injection, schedule: Q01DX001 (ip), vehicle: saline 86 % of control | dose: 40.0 mg/kg/injection, schedule: Q01DX001 (ip), vehicle: saline 98 % of control | dose: 80.0 mg/kg/injection, schedule: Q01DX001 (ip), vehicle: saline 90 % of control

CCC(C)C(CN)(CCN(C)CC)c1cccc2ccccc12 (centres undefined)
inactive: [1] 90 % of control

COC(=O)c1n[nH]c(C2OCC3OC(C)(C)OC32)c1I (centres undefined)
inactive: dose: 100.0 mg/kg/injection, schedule: Q01DX005 (ip), vehicle: saline 98 % of control | dose: 200.0 mg/kg/injection, schedule: Q01DX005 (ip), vehicle: saline 98 % of control

CCN(CC)C(=O)Nc1cccc([N+](=O)[O-])c1
inactive: dose: 100.0 mg/kg/injection, schedule: Q04DX002 (ip), vehicle: Klucel (hydroxypropylcellulose) (HPC) 104 % of control | dose: 200.0 mg/kg/injection, schedule: Q04DX002 (ip), vehicle: Klucel (hydroxypropylcellulose) (HPC) 97 % of control | dose: 400.0 mg/kg/injection, schedule: Q04DX002 (ip), vehicle: Klucel (hydroxypropylcellulose) (HPC) 101 % of control
